Assay results taken from US20250213571A1, “TYK2 INHIBITORS AND USES THEREOF” (Alumis Inc., priority 2022, published 2025).
Counter-ions that a name gives are not always drawn. Like-named read-outs stand apart in the source and are kept apart here.

Experiments:
[1] = 14-membered ring
JAK1 JH2 = JAK1 JH2 (Homo sapiens (Human), UniProt P23458); test: JAK1 JH2 binding (Kd, Table 2); conditions: JH2 domain
[2] = target: human TYK2 (JH2domain-pseudokinase) (Homo sapiens (Human), UniProt P29597); test: TYK2 JH2 domain binding assay (KINOMEscan)
Chain of human TYK2 (JH2domain-pseudokinase) (P29597 556-888): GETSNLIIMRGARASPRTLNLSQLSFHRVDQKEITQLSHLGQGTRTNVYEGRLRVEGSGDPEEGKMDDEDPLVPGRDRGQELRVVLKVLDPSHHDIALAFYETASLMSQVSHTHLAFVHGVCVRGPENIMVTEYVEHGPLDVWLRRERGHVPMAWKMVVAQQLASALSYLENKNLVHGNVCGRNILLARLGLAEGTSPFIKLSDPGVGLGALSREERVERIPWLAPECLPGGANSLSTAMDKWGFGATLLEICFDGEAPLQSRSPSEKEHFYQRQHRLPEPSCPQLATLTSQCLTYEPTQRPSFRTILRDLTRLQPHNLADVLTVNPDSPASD
Method: Binding constants for the compounds described herein against the JH2 domain were determined by the following protocol for a KINOMEscan® assay (DiscoveRx). A fusion protein of a partial length construct of human TYK2 (JH2domain-pseudokinase) (amino acids G556 to D888 based on reference sequence NP_003322.3) and the DNA binding domain of NFkB was expressed in transiently transfected HEK293 cells. From these HEK 293 cells, extracts were prepared in M-PER extraction buffer (Pierce) in the presence of Protease Inhibitor Cocktail Complete (Roche) and Phosphatase Inhibitor Cocktail Set II (Merck) per manufacturers' instructions. The TYK2 (JH2domain-pseudokinase) fusion protein was labeled with a chimeric double-stranded DNA tag containing the NFkB binding site fused to an amplicon for qPCR readout, which was added directly to the expression extract (the final concentration of DNA-tag in the binding reaction is 0.1 nM).
Streptavidin-coated magnetic beads (Dynal M280) were treated with a biotinylated small molecule ligand for 30 minutes at room temperature to generate affinity resins the binding assays. The liganded beads were blocked with excess biotin and washed with blocking buffer (SeaBlock (Pierce), 1% BSA, 0.05% Tween 20, 1 mM DTT) to remove unbound ligand and to reduce nonspecific binding.
The binding reaction was assembled by combining 16 μl of DNA-tagged kinase extract, 3.8 μl liganded affinity beads, and 0.18 μl test compound (PBS/0.05% Tween 20/10 mM DTT/0.1% BSA/2 μg/ml sonicated salmon sperm DNA)]. Extracts were used directly in binding assays without any enzyme purification steps at a ≥10,000-fold overall stock dilution (final DNA-tagged enzyme concentration <0.1 nM). Extracts were loaded with DNA-tag and diluted into the binding reaction in a two-step process. First extracts were diluted 1:100 in 1×binding buffer (PBS/0.05% Tween 20/10 mM DTT/0.1% BSA/2 […] sonicated salmon sperm DNA) containing 10 nM DNA-tag. This dilution was allowed to equilibrate at room temperature for 15 minutes and then subsequently diluted 1:100 in 1× binding buffer. Test compounds were prepared as 111× stocks in 100% DMSO. Kds were determined using an 11-point 3-fold compound dilution series with three DMSO control points. All compounds for Kd measurements were distributed by acoustic transfer (non-contact dispensing) in 100% DMSO. The compounds were then diluted directly into the assays such that the final concentration of DMSO was 0.9%. All reactions were performed in polypropylene 384-well plates. Each was a final volume of 0.02 mL. Assays were incubated with shaking for 1 hour at room temperature. Then the beads were pelleted and washed with wash buffer (1×PBS, 0.05% Tween 20) to remove displaced kinase and test compound. The washed based were resuspended in elution buffer (1 λPBS, 0.05% Tween […] non-biotinylated affinity ligand) and incubated at room temperature with shaking for 30 minutes. The kinase concentration in the eluates was measured by qPCR. qPCR reactions were assembled by adding 2.5 μL of kinase eluate to 7.5 μL of qPCR master mix containing […] amplicon primers and 0.15 μM amplicon probe. The qPCR protocol consisted of a 10 minute hot start at 95° C., followed by 35 cycles of 95° C. for 15 seconds, 60° C. for 1 minute.
Test compounds were prepared as 111× stocks in 100% DMSO. Kds were determined using an 11-point 3-fold compound dilution series with three DMSO control points. All compounds for Kd measurements were distributed by acoustic transfer (non-contact dispensing) in 100% DMSO. The compounds were then diluted directly into the assays such that the final concentration of DMSO was 0.9%. The Kds were determined using a compound top concentration of 30,000 nM. Kd measurements were performed in duplicate.
Binding constants (Kds) were calculated with a standard dose-response curve using the Hill equation: […]
The Hill Slope was set to −1. […]

TYK2 JH1 = TYK2 JH1 (Homo sapiens (Human), UniProt P29597); test: TYK2 JH1 binding (Kd, Table 2); conditions: JH1 domain
Chain of TYK2 JH1 (P29597 897-1176): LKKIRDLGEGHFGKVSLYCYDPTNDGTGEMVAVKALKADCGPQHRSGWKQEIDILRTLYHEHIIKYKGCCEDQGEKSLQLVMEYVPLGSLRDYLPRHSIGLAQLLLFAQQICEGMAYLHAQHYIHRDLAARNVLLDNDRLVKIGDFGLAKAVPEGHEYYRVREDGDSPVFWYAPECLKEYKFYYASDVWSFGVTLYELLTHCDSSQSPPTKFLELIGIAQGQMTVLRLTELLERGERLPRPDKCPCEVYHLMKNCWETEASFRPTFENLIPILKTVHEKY

Chain of JAK1 JH2 (P23458 583-855): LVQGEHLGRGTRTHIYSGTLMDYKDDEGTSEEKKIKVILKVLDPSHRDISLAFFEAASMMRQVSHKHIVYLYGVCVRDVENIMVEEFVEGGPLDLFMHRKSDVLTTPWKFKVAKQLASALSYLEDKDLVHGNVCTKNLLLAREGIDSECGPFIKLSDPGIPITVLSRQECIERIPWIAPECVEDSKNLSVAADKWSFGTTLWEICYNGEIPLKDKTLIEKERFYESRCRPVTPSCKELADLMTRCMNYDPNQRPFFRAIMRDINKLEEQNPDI

Kd (JAK1 JH2) [nM] | Kd [2] [nM] | Kd (TYK2 JH1) [nM] | Compound | also measured
 |  |  | CNc1nc2cnc3cn2c1C(=O)N[C@H](C)COCc1cc(c2nnn(C)c2c1)N3 | ring closure, isolated yield ([1]; from CNc1nc2cnc(Br)cn2c1C(=O)N[C@H](C)COCc1cc(N)c2nnn(C)c2c1, cn_pd bond, RuPhos Pd G3/Cs2CO3, dioxane, 62.0 mM, 100.0 °C, 16.0 h): 10%
 |  |  | C[C@@H]1COCc2cc(c3nnn(C)c3c2)Nc2cc(N(C)C(=O)OC(C)(C)C)c3ncc(n3n2)C(=O)N1 | ring closure, isolated yield ([1]; from C[C@H](COCc1cc(N)c2nnn(C)c2c1)NC(=O)c1cnc2c(N(C)C(=O)OC(C)(C)C)cc(Cl)nn12, cn_pd bond, Pd2(dba)3/BINAP/Cs2CO3, dioxane, 50.0 mM, 16.0 h): 50%
 |  |  | C[C@@H]1COCc2cc(c3nnn(C)c3c2)Nc2cc(N(C)C(=O)OC(C)(C)C)n3ncc(c3n2)C(=O)O1 | ring closure, isolated yield ([1]; from C[C@@H](O)COCc1cc(Nc2cc(N(C)C(=O)OC(C)(C)C)n3ncc(C(=O)O)c3n2)c2nnn(C)c2c1, ester bond, DIAD/PPh3, DCM, 20.0 mM, 16.0 h): 52%
 |  |  | C[C@@H]1COCc2cc(cn3ccnc23)Nc2cc(N(C)C(=O)OC(C)(C)C)c3ncc(n3n2)C(=O)N1 | ring closure, isolated yield ([1]; from C[C@H](COCc1cc(N)cn2ccnc12)NC(=O)c1cnc2c(N(C)C(=O)OC(C)(C)C)cc(Cl)nn12, cn_pd bond, Pd2(dba)3/Xantphos/Cs2CO3, 1,4-dioxane, 80.0 °C): 34%
 |  |  | C[C@@H]1COc2ccnc3cnc(cc23)Nc2cc(N(C)C(=O)OC(C)(C)C)c3ncc(n3n2)C(=O)N1 | ring closure, isolated yield ([1]; from C[C@H](COc1ccnc2cnc(N)cc12)NC(=O)c1cnc2c(N(C)C(=O)OC(C)(C)C)cc(Cl)nn12, cn_pd bond, Pd2(dba)3/Xantphos/Cs2CO3, 1,4-dioxane, 57.0 mM, 80.0 °C, 16.0 h): 54%
10 to 1000 | < 10 | ≥ 30000 | CNc1cc2nn3c(cnc13)C(=O)N[C@H](C)C(C)OCc1cc(c3nnn(C)c3c1)N2 (stereo partly drawn) [Compound 90] | 
1000 to 10000 | < 10 | 10 to 1000 | CNc1cc2nc3c(cnn13)C(=O)N[C@H](CO)COCc1cc(c3nnn(C)c3c1)N2 [Compound 91] | 
10000 to 30000 | < 10 | ≥ 30000 | CNc1cc2nc3c(cnn13)C(=O)NC(C(F)(F)F)COCc1cc(c3nnn(C)c3c1)N2 (stereo not drawn) [Compound 92] | 
1000 to 10000 | < 10 | ≥ 30000 | CNc1cc2nc3c(cnn13)C(=O)N[C@H](C)[C@H](C)OCc1cc(c3c(c1)nnn3C)N2 [Compound 93] | 
10000 to 30000 | < 10 | ≥ 30000 | CNc1cc2nc3c(cnn13)C(=O)N[C@H](C)[C@@H](C)OCc1cc(c3c(c1)nnn3C)N2 [Compound 94] | 
≥ 30000 | < 10 | ≥ 30000 | CNc1cc2nc3c(cnn13)C(=O)NC(C(F)(F)F)COCc1cc(c3c(c1)nnn3C)N2 (stereo not drawn) [Compound 95] | 
10 to 1000 | < 10 | 1000 to 10000 | CNc1cc2nn3c(cnc13)C(=O)N[C@H](C)COCc1cc(cc3[nH]ncc13)N2 [Compound 96, (14R)-14-methyl-21-(methylamino)-12-oxa-2,6,7,15,19,23,24-heptaazapentacyclo[15.5.2.1^(3,10.0^(5,9.0^(20,24]pentacosa-1(23),3(25),4,7,9,17,19,21-octaen-16-one hydrochloride] | 
10 to 1000 | < 10 | 1000 to 10000 | CNc1cc2nn3c(cnc13)C(=O)N[C@H](C)COCc1cc(cc3nc[nH]c13)N2 [Compound 97, (14R)-14-methyl-21-(methylamino)-12-oxa-2,6,8,15,19,23,24-heptaazapentacyclo[15.5.2.1^(3,10.0^(5,9.0^(20,24]pentacosa-1(23),3(25),4,6,9,17,19,21-octaen-16-one hydrochloride] | 
10 to 1000 | < 10 | 10 to 1000 | CNc1cc2nn3c(cnc13)C(=O)N[C@H](C)COCc1cc(cc3cn[nH]c13)N2 [Compound 98] | 
 |  |  | (14R)-19-[(4-methoxyphenyl)methyl]-21-([(4-methoxyphenyl)methyl](methyl)amino-7,14-dimethyl-12-oxa-2,5,6,7,15,18,19,22,23-nonaazapentacyclo[15.5.2.1^(3,10.0^(4,8.0^(20,24]pentacosa-1(23),3(25),4(8),5,9,17,20(24),21-octaen-16-one | ring closure, isolated yield ([1]; cn_pd bond, Pd2(dba)3/Xantphos/Cs2CO3, 1,4-dioxane, 36.5 mM, 100.0 °C): 74%
10000 to 30000 | < 10 | 1000 to 10000 | (R,1^3E,1^4E)-3′,7-Dimethyl-1^7-(methylamino)-3^1H-5-oxa-2,8-diaza-1(5,3)-pyrazolo[1,5-a]pyrimidina-3(7,5)-indazolacyclononaphan-9-one [Compound 13] | 
 |  |  | tert-Butyl ((7R,E)-7-(hydroxymethyl)-3^1-methyl-9-oxo-3^1H-5-oxa-2,8-diaza-1(6,3),3(4,6)-diimidazo[1,2-b]pyridazinacyclononaphane-1^8-yl)(methyl)carbamate | ring closure, isolated yield ([1]; cn_pd bond, Pd2(dba)3/BINAP/Cs2CO3, dioxane, 10.0 mM): 25%
 |  |  | tert-butyl N-methy 1-N-[(12R)-12-methyl-10-oxo-14-oxa-2,4,5,7,11,20-hexaazapentacyclo [13.6.2.2^{3,6}0.^{5,9}0.^{19,23}]pentacosa 1(21),3,6,8,15,17,19,22,24-nonaen-24-yl]carbamate | ring closure, isolated yield ([1]; cn_pd bond, Pd2(dba)3/Xantphos, 1,4-dioxane, 34.0 mM, 80.0 °C): 66%
 |  |  | tert-butyl N-methyl-N-[(12R)-12-methyl-10-oxo-2,4,5,7,11,14,16,18-octaazapentacyclo[13.6.2.2^(3,6.0^(5,9.0^(19,23]pentacosa-1(21),3,6,8,15,17,19,22,24-nonaen-24-yl]carbamate | ring closure, isolated yield ([1]; cn_pd bond, Pd2(dba)3/Xantphos/Cs2CO3, 1,4-dioxane, 100.0 mM, 85.0 °C): 18%
 |  |  | tert-butyl N-methyl-N-[(12R)-12-methyl-10-oxo-2,4,5,7,11,14,18-heptaazapentacyclo[13.6.2.2^(3,6.0^(5,9.0^(19,23]pentacosa-1(21),3,6,8,15,17,19,22,24-nonaen-24-yl]carbamate | ring closure, isolated yield ([1]; cn_pd bond, Pd2(dba)3/Xantphos/Cs2CO3, 1,4-dioxane, 85.0 mM, 90.0 °C): 62%
 |  |  | tert-butyl N-methyl-N-[(12R)-12-methyl-10-oxo-14-oxa-2,4,5,7,11,18-hexaazapentacyclo[13.6.2.2^(3,6.0^(5,9.0^(19,23]pentacosa-1(22),3,6,8,15,17,19(23),20,24-nonaen-24-yl]carbamate | ring closure, isolated yield ([1]; cn_pd bond, Pd2(dba)3/Cs2CO3, 1,4-dioxane, 42.3 mM, 80.0 °C): 67%
 |  |  | tert-butyl N-methyl-N-[(12R)-12-methyl-10-oxo-14-oxa-2,4,5,7,11,22-hexaazapentacyclo[13.6.2.2^(3,6.0^(5,9.0^(19,23]pentacosa-1(21),3,6,8,15,17,19,22,24-nonaen-24-yl]carbamate | ring closure, isolated yield ([1]; cn_pd bond, Pd2(dba)3/Xantphos/Cs2CO3, 1,4-dioxane, 95.0 mM, 80.0 °C): 86%
